Measurements: patent US11759455B2, “Substituted 1H-imidazo[4,5-b]pyridin-2(3H)-ones and their use as GLUN2B receptor modulators” (JANSSEN PHARMACEUTICA NV, priority 2016, dated 2023)
Like-named read-outs stand apart in the source and are kept apart here.

Molecular target: T1, human GluN1/GluN2B NMDA receptors (Homo sapiens, UniProt Q13224)
T1 construct: expressed in transfected cells
Experiment: Cell-based calcium flux (FLIPR) assay on cloned human NR1/NR2B ion channels expressed in mammalian cells (standard and HTS buffer variants);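 note: stable Tet-On inducible cell line, Ca2+ influx triggered by glutamate at about EC40 plus 10 µM glycine, fluorescent dye read-out over 5 min, normalized to control wells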

[1] = standard assay buffer (0.5 mM MgCl2 dye loading; 137 mM NaCl, 4 mM KCl assay buffer), human GluN1/GluN2B cells, read-out: NR2B IC50 (μM) standard assay
[2] = standard assay buffer (0.5 mM MgCl2 in dye loading buffer; 137 mM NaCl, 4 mM KCl in assay buffer), human GluN1/GluN2B, read-out: NR2B IC50 (μM) standard assay
[3] = HTS assay buffer (1.5 mM MgCl2 in dye loading buffer; 150 mM NaCl, 3 mM KCl in assay buffer), human GluN1/GluN2B, read-out: NR2B IC50 (μM) HTS assay

T1 sequence (Q13224 27-1484, other chains not shown): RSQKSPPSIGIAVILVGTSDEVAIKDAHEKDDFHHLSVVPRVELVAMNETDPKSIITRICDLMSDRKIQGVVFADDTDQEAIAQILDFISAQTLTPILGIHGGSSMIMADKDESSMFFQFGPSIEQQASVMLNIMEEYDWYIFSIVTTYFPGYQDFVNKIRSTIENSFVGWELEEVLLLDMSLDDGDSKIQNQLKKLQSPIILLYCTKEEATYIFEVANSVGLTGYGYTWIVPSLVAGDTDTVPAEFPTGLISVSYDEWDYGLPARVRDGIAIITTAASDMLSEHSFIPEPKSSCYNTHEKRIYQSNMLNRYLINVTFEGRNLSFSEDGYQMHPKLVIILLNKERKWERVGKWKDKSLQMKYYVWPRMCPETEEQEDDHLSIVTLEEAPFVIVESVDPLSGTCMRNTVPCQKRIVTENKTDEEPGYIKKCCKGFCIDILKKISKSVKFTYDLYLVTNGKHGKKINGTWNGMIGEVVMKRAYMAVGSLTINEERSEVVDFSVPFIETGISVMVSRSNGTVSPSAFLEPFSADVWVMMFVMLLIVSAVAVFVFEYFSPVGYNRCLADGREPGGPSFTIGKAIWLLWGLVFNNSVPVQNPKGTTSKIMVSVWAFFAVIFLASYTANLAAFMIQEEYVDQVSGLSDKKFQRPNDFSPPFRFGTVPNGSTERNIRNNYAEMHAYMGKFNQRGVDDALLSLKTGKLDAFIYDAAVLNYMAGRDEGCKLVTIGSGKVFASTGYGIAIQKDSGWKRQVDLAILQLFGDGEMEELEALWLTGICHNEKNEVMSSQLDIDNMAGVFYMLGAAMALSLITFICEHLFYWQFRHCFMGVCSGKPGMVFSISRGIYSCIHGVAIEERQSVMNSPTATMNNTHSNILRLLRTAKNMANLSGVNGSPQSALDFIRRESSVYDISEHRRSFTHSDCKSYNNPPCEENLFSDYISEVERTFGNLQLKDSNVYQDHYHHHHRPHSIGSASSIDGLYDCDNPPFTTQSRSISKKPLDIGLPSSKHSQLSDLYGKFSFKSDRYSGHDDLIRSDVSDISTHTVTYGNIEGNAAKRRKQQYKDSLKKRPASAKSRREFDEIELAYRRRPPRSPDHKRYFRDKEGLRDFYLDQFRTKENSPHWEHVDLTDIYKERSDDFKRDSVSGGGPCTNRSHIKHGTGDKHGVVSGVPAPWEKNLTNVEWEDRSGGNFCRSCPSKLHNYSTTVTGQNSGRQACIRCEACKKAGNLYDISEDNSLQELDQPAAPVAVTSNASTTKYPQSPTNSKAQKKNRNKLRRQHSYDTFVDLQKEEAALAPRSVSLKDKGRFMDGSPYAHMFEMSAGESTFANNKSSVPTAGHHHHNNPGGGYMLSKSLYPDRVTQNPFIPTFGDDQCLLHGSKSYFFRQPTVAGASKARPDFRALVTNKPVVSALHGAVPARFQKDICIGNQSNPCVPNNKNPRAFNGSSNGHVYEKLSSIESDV

Q: `O=c1[nH]c2ncc(-c3cccc(C(F)F)c3)cc2n1Cc1ccccn1` [Example 287, 6-[3-(Difluoromethyl)phenyl]-1-(2-pyridylmethyl)-3H-imidazo[4,5-b]pyridin-2-one] was tested. Which IC50 [1] did it give?
A: 0.107 µM

Q: Which IC50 [2] does the source give for `CCC(=O)Cn1c(=O)n(C)c2ncc(-c3ccc(F)c(C)c3F)cc21` [Example 391, 6-(2,4-Difluoro-3-methyl-phenyl)-3-methyl-1-(2-oxobutyl)imidazo[4,5-b]pyridin-2-one] here?
A: 0.026 µM

Q: With `Cc1cncc(Cn2c(=O)[nH]c3ncc(-c4cccc(F)c4F)cc32)c1` [Example 310, 6-(2,3-Difluorophenyl)-1-[(5-methyl-3-pyridyl)methyl]-3H-imidazo[4,5-b]pyridin-2-one] as the compound, how does the IC50 [1] read?
A: 0.088 µM

Q: With `Cc1cc(-c2cnc3[nH]c(=O)n(Cc4cnccc4C)c3c2)ccc1F` [Example 277, 6-(4-Fluoro-3-methyl-phenyl)-1-[(4-methyl-3-pyridyl)methyl]-3H-imidazo[4,5-b]pyridin-2-one] as the compound, how does the IC50 [1] read?
A: 0.077 µM

Q: Which IC50 [1] does the source give for `Cn1c(=O)n(CC(=O)N2CC(F)(F)C2)c2cc(-c3cccc(C(F)(F)F)c3)cnc21` [Example 138, 1-[2-(3,3-difluoroazetidin-1-yl)-2-oxo-ethyl]-3-methyl-6-[3-(trifluoromethyl)phenyl]imidazo[4,5-b]pyridin-2-one] here?
A: 0.089 µM

Q: For `CCOc1ccc(F)cc1-c1cnc2[nH]c(=O)n(CC(=O)NCCOC)c2c1` [Example 443, 2-[6-(2-Ethoxy-5-fluoro-phenyl)-2-oxo-3H-imidazo[4,5-b]pyridin-1-yl]-N-(2-methoxyethyl)acetamide], which IC50 [3] is on record?
A: 1.32 µM

Q: `CN(C)c1cccc(-c2cnc3[nH]c(=O)n(Cc4cccc(F)c4)c3c2)c1` [Example 500, 6-[3-(Dimethylamino)phenyl]-1-[(3-fluorophenyl)methyl]-3H-imidazo[4,5-b]pyridin-2-one] was tested. Which IC50 [2] did it give?
A: 6.08 µM

Q: With `Cc1cccc(-c2cnc3c(c2)n(Cc2cncc(F)c2)c(=O)n3C)c1` [Example 350, 1-[(5-Fluoro-3-pyridyl)methyl]-3-methyl-6-(m-tolyl)imidazo[4,5-b]pyridin-2-one] as the compound, how does the IC50 [2] read?
A: 0.029 µM

Q: For `CN(C)C(=O)Cn1c(=O)n(C)c2ncc(-c3ccc(C(F)F)s3)cc21` [Example 94, 2-[6-[5-(Difluoromethyl)-2-thienyl]-3-methyl-2-oxo-imidazo[4,5-b]pyridin-1-yl]-N,N-dimethyl-acetamide], which IC50 [1] is on record?
A: 0.017 µM

Q: `Cn1c(=O)n(Cc2ccncc2)c2cc(-c3cccc(F)c3)cnc21` [Example 52, 6-(3-Fluorophenyl)-3-methyl-1-(4-pyridylmethyl)imidazo[4,5-1D]pyridin-2-one] was tested. Which IC50 [1] did it give?
A: 3.33 µM

Q: With `CCOc1ccccc1-c1cnc2[nH]c(=O)n(CC(=O)c3cccs3)c2c1` [Example 458, 6-(2-Ethoxyphenyl)-1-[2-oxo-2-(2-thienyl)ethyl]-3H-imidazo[4,5-b]pyridin-2-one] as the compound, how does the IC50 [2] read?
A: 0.135 µM

Q: `Cn1c(=O)n(CC(=O)N2CC(F)(F)C2)c2cc(-c3ccc(C(F)(F)F)s3)cnc21` [Example 430, 1-[2-(3,3-Difluoroazetidin-1-yl)-2-oxo-ethyl]-3-methyl-6-[5-(trifluoromethyl)-2-thienyl]imidazo[4,5-b]pyridin-2-one] was tested. Which IC50 [2] did it give?
A: 0.028 µM

Q: `Cc1nnc(Cn2c(=O)n(C)c3ncc(-c4ccc(F)c(F)c4)cc32)o1` [Example 73, 6-(3,4-Difluorophenyl)-3-methyl-1-[(5-methyl-1,3,4-oxadiazol-2-yl)methyl]imidazo[4,5-b]pyridin-2-one] was tested. Which IC50 [1] did it give?
A: 0.314 µM

Q: Which IC50 [1] does the source give for `O=c1[nH]c2ncc(-c3cccc(C(F)(F)F)c3)cc2n1Cc1ccncn1` [Example 23, 1-(Pyrimidin-4-ylmethyl)-6-[3-(trifluoromethyl)phenyl]-3H-imidazo[4,5-b]pyridin-2-one] here?
A: 0.22 µM

Q: `Cn1c(=O)n(Cc2cccnn2)c2cc(-c3ccc(F)c(C(F)(F)F)c3)cnc21` [Example 382, 6-[4-Fluoro-3-(trifluoromethyl)phenyl]-3-methyl-1-(pyridazin-3-ylmethyl)imidazo[4,5-b]pyridin-2-one] was tested. Which IC50 [2] did it give?
A: 0.016 µM

Q: Which IC50 [3] does the source give for `COc1ccc(Cn2c(=O)[nH]c3ncc(-c4cc(F)cc(F)c4)cc32)cc1` [Example 508, 6-(3,5-Difluorophenyl)-1-[(4-methoxyphenyl)methyl]-3H-imidazo[4,5-b]pyridin-2-one] here?
A: 0.463 µM

Q: Which IC50 [1] does the source give for `Cc1ccncc1Cn1c(=O)[nH]c2ncc(-c3cc(F)c(F)c(F)c3)cc21` [Example 312, 1-[(4-Methyl-3-pyridyl)methyl]-6-(3,4,5-trifluorophenyl)-3H-imidazo[4,5-b]pyridin-2-one] here?
A: 0.002 µM

Q: With `Cn1c(=O)n(Cc2cccnn2)c2cc(-c3cc(F)cc(C(F)(F)F)c3)cnc21` [Example 383, 6-[3-Fluoro-5-(trifluoromethyl)phenyl]-3-methyl-1-(pyridazin-3-ylmethyl)imidazo[4,5-b]pyridin-2-one] as the compound, how does the IC50 [2] read?
A: 0.041 µM

Q: For `COC1CCN(CCn2c(=O)[nH]c3ncc(-c4cc(F)cc(F)c4)cc32)C1` (stereo not shown) [Example 176, 6-(3,5-Difluorophenyl)-1-[2-(3-methoxypyrrolidin-1-yl)ethyl]-3H-imidazo[4,5-b]pyridin-2-one], which IC50 [1] is on record?
A: 4.37 µM

Q: With `CN(C)C(=O)Cn1c(=O)n(C)c2ncc(-c3ccc(CO)s3)cc21` [Example 91, 2-[6-[5-(Hydroxymethyl)-2-thienyl]-3-methyl-2-oxo-imidazo[4,5-b]pyridin-1-yl]-N,N-dimethyl-acetamide] as the compound, how does the IC50 [1] read?
A: 1.7 µM

Q: `Cc1cccc(-c2cnc3[nH]c(=O)n(CCN4CCC4)c3c2)c1` [Example 154, 1-[2-(Azetidin-1-yl)ethyl]-6-(m-tolyl)-3H-imidazo[4,5-b]pyridin-2-one] was tested. Which IC50 [1] did it give?
A: 0.077 µM

Q: With `CN(C)C(=O)Cn1c(=O)n(C)c2ncc(-c3ccsc3C(F)(F)F)cc21` [Example 96, N,N-Dimethyl-2-[3-methyl-2-oxo-6-[2-(trifluoromethyl)-3-thienyl]imidazo[4,5-b]pyridin-1-yl]acetamide] as the compound, how does the IC50 [1] read?
A: 0.522 µM

Q: Which IC50 [1] does the source give for `CCC(=O)Cn1c(=O)[nH]c2ncc(-c3ccc(F)c(C)c3F)cc21` [Example 30, 6-(2,4-Difluoro-3-methyl-phenyl)-1-(2-oxobutyl)-3H-imidazo[4,5-b]pyridin-2-one] here?
A: 0.011 µM

Q: With `O=c1[nH]c2ncc(-c3cccc(C(F)(F)F)c3)cc2n1CCN1CCCC1` [Example 146, 1-(2-Pyrrolidin-1-ylethyl)-6-[3-(trifluoromethyl)phenyl]-3H-imidazo[4,5-b]pyridin-2-one] as the compound, how does the IC50 [1] read?
A: 0.506 µM

Q: `O=c1[nH]c2ncc(-c3cccc(C(F)(F)F)c3)cc2n1CCN1CC(C(F)(F)F)C1` [Example 166, 1-[2-[3-(Trifluoromethyl)azetidin-1-yl]ethyl]-6-[3-(trifluoromethyl)phenyl]-3H-imidazo[4,5-b]pyridin-2-one] was tested. Which IC50 [1] did it give?
A: 3.48 µM

Q: How did the IC50 [2] turn out when `Cc1c(F)ccc(-c2cnc3c(c2)n(Cc2csnn2)c(=O)n3C)c1F` [Example 576, 6-(2,4-Difluoro-3-methyl-phenyl)-3-methyl-1-(thiadiazol-4-ylmethyl)imidazo[4,5-b]pyridin-2-one] was run?
A: 0.05 µM

Q: `Cn1c(=O)n(Cc2cncc(Cl)c2)c2cc(-c3ccc(C(F)(F)F)s3)cnc21` [Example 373, 1-[(5-Chloro-3-pyridyl)methyl]-3-methyl-6-[5-(trifluoromethyl)-2-thienyl]imidazo[4,5-b]pyridin-2-one] was tested. Which IC50 [2] did it give?
A: 9.72 µM

Q: For `Cn1c(=O)n(Cc2cncc(F)c2)c2cc(-c3ccc(F)c(OC(F)F)c3)cnc21` [Example 547, 6-[3-(Difluoromethoxy)-4-fluoro-phenyl]-1-[(5-fluoro-3-pyridyl)methyl]-3-methyl-imidazo[4,5-b]pyridin-2-one], which IC50 [2] is on record?
A: 0.036 µM
